Results as given in patent publication EP0482717A1, “Use of a benzo[b]thiophene-2-carboximidamide derivative against heart failure” (Akzo Nobel N.V., priority 1990, dated 1992).
Marks after values point to notes of the source that are not given here.

What was measured:
Assay type in all cases: in vivo
anaesthetized cat = experiment: Left ventricular contractility (LV dP/dt) after oral administration (by gavage) to anaesthetized cats; conditions: for potency at increasing left ventricular contractility (LV dP/dt): administered orally (by gavage), compounds I and II compared, species not given
From the text: However, it also appeared that this improvement with regard to compound II could be fully attributed to its reduced bioavailability. […] Poor activity was also observed after oral administration (by gavage) of the compound to anaesthetized cats. Substitution with C1 at the 4- position in the benzothiophene nucleus, thus reduces oral activity.
(§1) The pharmacological results after oral administration of compounds I (this invention) vs. compounds II and III (EP 158,380), are depicted in table I (cat) and table II (dog).

conscious dog = experiment: Left ventricular contractility (LV dP/dt), emesis and restlessness after oral administration to conscious dogs
From the text: (§2) Related compounds with positive inotropic activity have been disclosed in European patent 158,380.
as §1

[1] = Plasma drug levels in multiple dose studies in rats; conditions: compared with an equivalent dose of compound II
volunteers = experiment: Clinical Phase I studies, oral administration to volunteers
From the text: as §2

[2] = oral administration, conscious dog, dose 25 mg/kg

SMILES	potency at increasing left ventricular contractility (LV dP/dt) (anaesthetized cat)	emetic effect compared with compound II (conscious dog; oral administration to conscious dogs)	emesis (conscious dog; [2])	increase in LV dP/dt (%) (conscious dog; [2])	restlessness (conscious dog; [2])	increases in LV dP/dt (conscious dog; oral dose 25 mg/kg)	vomiting (conscious dog; oral dose 25 mg/kg)	plasma drug levels [1]	activity after oral administration (by gavage) (anaesthetized cat; anaesthetized cats)	increases of left ventricular contractility (LV dP/dt) (conscious dog; conscious dogs, oral administration, doses up to and including 50 mg/kg)	emesis and vomiting (conscious dog; dose not stated)	restlessness (conscious dog; dose not stated)	nausea and vomiting (volunteers)	doses at which the compound consistently produces vomiting and restlessness (conscious dog; administered orally to conscious restrained dogs) [mg/kg]
COc1cc2sc(C(=N)NO)cc2c(F)c1OC [Compound I, 4-fluoro-N-hydroxy-5,6-dimethoxybenzo[b]thiophene-2-carboximidamide]	approximately equipotent	less emetic than compound II	0	45%	0	marked increases	no significant vomiting	higher	–	–	–	–	–	–
COc1cc2sc(C(N)=NO)cc2c(Cl)c1OC [III]	–	–	0	10%	–	–	–	–	Poor activity	Only modest increases	did not cause emesis and vomiting	restlessness was still observed	–	–
COc1cc2cc(C(N)=NO)sc2cc1OC [II]	approximately equipotent	–	–	50-100* %	–	–	–	–	–	–	–	–	nausea and vomiting were also observed	> 10
